Results on four compounds are retold here after ChEMBL document CHEMBL5303304, “EUbOPEN Chemogenomics Library - IncuCyte” (2023).

Holding throughout (type): toxicity, cell-based
One data set concerns HEK-293T. As to the kind of experiment: Incucyte cell viability with HEK293T. The settings on record: human, 10 µM, compound concentration 10 uM.
The subject of the next data set is Fibroblast. Kind of data set: Incucyte cell viability with human fibroblast. The settings on record: 10 µM, compound concentration 10 uM.
Another data set has as its system U2OS. Kind of data set: Incucyte cell viability with U2OS. The settings on record: human, 10 µM, compound concentration 10 uM.
Further: unitless GR value; below 1 slowed growth and below 0 cell loss.

Consider `CCCS(=O)(=O)Nc1ccc(F)c(Nc2ncnc3cnc(-n4cnc(C)c4)nc23)c1F`, for which the “Growth Rate” value in the data set on HEK-293T (0 h, replicate number 1) was -0.79; in the data set with HEK-293T (6 h, replicate number 2), 0.5; in the data set on HEK-293T (12 h, replicate number 1), 0.77; with HEK-293T (12 h, replicate number 2) it was 0.72; in the data set with HEK-293T (18 h, replicate number 1), 0.75; in the data set on HEK-293T (18 h, replicate number 2), 0.73. The “Growth Rate” value is given as 0.71 in the data set with HEK-293T (24 h, replicate number 1); 0.8 in the data set on HEK-293T (24 h, replicate number 2); -0.99 in the data set with Fibroblast (0 h, replicate number 1); 0.75 in the data set on Fibroblast (6 h, replicate number 1); 0.4 with Fibroblast (6 h, replicate number 2); 0.52 in the data set on Fibroblast (12 h, replicate number 1). In addition, the “Growth Rate” value in the data set with Fibroblast (12 h, replicate number 2) turned out to be 0.62; in the data set with Fibroblast (18 h, replicate number 1), 0.53; in the data set with Fibroblast (18 h, replicate number 2), 0.69; with Fibroblast (24 h, replicate number 1), 0.53; in the data set with Fibroblast (24 h, replicate number 2), 0.77; with U2OS (6 h, replicate number 1), 0.75. Moreover, the “Growth Rate” value in the data set on U2OS (6 h, replicate number 2) is recorded as 0.61; with U2OS (12 h, replicate number 1) it was 0.7; in the data set with U2OS (12 h, replicate number 2), 0.63; in the data set with U2OS (18 h, replicate number 1), 0.78; with U2OS (18 h, replicate number 2), 0.84; with U2OS (24 h, replicate number 1) it was 0.97. In the data set with U2OS (24 h, replicate number 2), the “Growth Rate” value is given as 0.67.

Turning to `CN1CC(=O)N(C)c2cnc(Nc3ccc(NC(=O)Nc4cccc(C(=O)O)c4)cc3)nc21`, the “Growth Rate” value in the data set with HEK-293T (0 h, replicate number 1) is -1; in the data set on HEK-293T (18 h, replicate number 1), 0.83; in the data set with HEK-293T (24 h, replicate number 1), 0.72; in the data set with Fibroblast (0 h, replicate number 1) it was -1; with Fibroblast (0 h, replicate number 2), -0.25; in the data set on Fibroblast (12 h, replicate number 2), 0.81. Further, the “Growth Rate” value in the data set with Fibroblast (18 h, replicate number 2) is reported as 0.99; with U2OS (0 h, replicate number 1), -0.94; in the data set on U2OS (0 h, replicate number 2), 0.52; in the data set with U2OS (6 h, replicate number 1), 0.82; with U2OS (6 h, replicate number 2) it was 0.73; in the data set with U2OS (12 h, replicate number 1) it was 0.91. Moreover, the “Growth Rate” value in the data set with U2OS (12 h, replicate number 2) worked out at 0.75; in the data set on U2OS (18 h, replicate number 1), 0.89; with U2OS (18 h, replicate number 2), 0.97; with U2OS (24 h, replicate number 1) it was 0.95; in the data set with U2OS (24 h, replicate number 2), 1.

For `CN(C)c1ccc(-c2cc3ncccc3c(OCCCCO)n2)cc1.O=C(O)C(F)(F)F`, the “Growth Rate” value in the data set on HEK-293T (0 h, replicate number 1) is reported as -0.94; in the data set on HEK-293T (0 h, replicate number 2) it was -0.26; in the data set with HEK-293T (24 h, replicate number 2), 0.87; with Fibroblast (0 h, replicate number 2), -0.45; in the data set with Fibroblast (6 h, replicate number 2), 0.29; with Fibroblast (12 h, replicate number 2) it was 0.37. Besides, the “Growth Rate” value in the data set on Fibroblast (18 h, replicate number 2) is recorded as 0.6; in the data set on Fibroblast (24 h, replicate number 2), 0.65; in the data set with U2OS (0 h, replicate number 1), -1; in the data set on U2OS (6 h, replicate number 2), -0.83; in the data set with U2OS (12 h, replicate number 1), 0.85; in the data set on U2OS (12 h, replicate number 2), 0.55. The “Growth Rate” value is on record as 0.66 with U2OS (18 h, replicate number 1); 0.67 in the data set with U2OS (18 h, replicate number 2); 0.91 in the data set on U2OS (24 h, replicate number 1); 0.64 in the data set with U2OS (24 h, replicate number 2).

As for `O=C1CCCN1CCNc1nc(Nc2ccc(Cl)c(Cl)c2)ncc1C(F)(F)F`, the “Growth Rate” value in the data set with HEK-293T (0 h, replicate number 1) is -0.87; with HEK-293T (0 h, replicate number 2), -1; in the data set with HEK-293T (18 h, replicate number 1), 0.89; with HEK-293T (24 h, replicate number 1) it was 0.78; in the data set with Fibroblast (6 h, replicate number 2), 0.95; in the data set with Fibroblast (12 h, replicate number 1) it was 0.62. The “Growth Rate” value was 0.41 with Fibroblast (12 h, replicate number 2); 0.65 in the data set with Fibroblast (18 h, replicate number 1); 0.48 in the data set with Fibroblast (18 h, replicate number 2); 0.64 in the data set with Fibroblast (24 h, replicate number 1); 0.45 with Fibroblast (24 h, replicate number 2); -1 in the data set on U2OS (0 h, replicate number 1). The “Growth Rate” value in the data set on U2OS (6 h, replicate number 1) is 0.32; with U2OS (12 h, replicate number 1) it was 0.24; in the data set on U2OS (12 h, replicate number 2) it was -0.25; with U2OS (18 h, replicate number 1), 0.25; in the data set on U2OS (24 h, replicate number 1), 0.37.
